For series [1], the system named is tumors growing within the liver. The note with it: rabbit model for liver cancer; cited from earlier work.
A short description of series [2]: Loading of doxorubicin into liposome polymer matrices. It counts as physicochemical. The note with it: polymer/lipid:drug ratio approximately at least 50:1, mol/mol. On the procedure: The spheres that were subjected to ultrafiltration or column washes were stored for a variable amount of time in a minimal amount of 3 M sucrose, 750 mM Histidine HCl to maintain hydration at 20° C. and 5° C. Following storage the loading efficiency of doxorubicin into the spheres was assessed (table 1). For drug loading a procedure that could easily be implement in the pharmacy was employed. Specifically a water bath or dry heat block was allowed to equilibrate at 58° C. (55°-60° C.). For each 1 mL packed volume of microspheres, 50 mg of lyophilized doxorubicin (for storage lactose and parahydroxybenzoate may be added) in a solution of 8 mL was prepared. This solution was then added to the equilibrated heating source for 10 min. Next a 2 mL concentrated solution of sodium carbonate was injected into the microsphere solution. The 2 mL of microspheres and 8 mL of doxorubicin were then combined creating a solution with pH of 7 (this step should be done within 2 minutes of adding sodium carbonate to the microspheres). The mixture should be shaken vigorously and allowed to sit for at least 10 minutes in the heat block or water bath and then brought to room temperature. After this period the spheres can be stored up to 10 hours at 25° C. and for 7 days at 2° C.-8° C. […]

Here are results for two molecules from patent publication US20110104052A1, “METHODS OF SYNTHESIS AND USE OF CHEMOSPHERES” (THE JOHNS HOPKINS UNIVERSITY, priority 2007, published 2011).

Consider `O=C(O)C(=O)CBr` [3-bromopyruvate], for which the “effect of bolus injection on non-tumor tissue” value in series [1] was “damages surrounding liver tissue”.

Take `COc1cccc2c1C(=O)c1c(O)c3c(c(O)c1C2=O)C[C@@](O)(C(=O)CO)C[C@@H]3O[C@H]1C[C@H](N)[C@H](O)[C@H](C)O1` [doxorubicin]: in series [2], the “added doxorubicin that becomes vesicle entrapped as doxorubicin-citrate” value is on record as “greater than 90%”.
